Test system: MV-4-11 cells
Experiment: Gene expression microarray analysis (Affymetrix PrimeView) and GSEA
Format: cell-based, human
Parameters: RFU PODN (11730768_x_at) / Fold change /veh PODN (11730768_x_at) / RFU LINC00158 (11744669_a_at) / Fold change /veh LINC00158 (11744669_a_at) / RFU DUSP10 (11751237_a_at) / Fold change /veh DUSP10 (11751237_a_at) / RFU ID3 (11757404_x_at) / Fold change /veh ID3 (11757404_x_at) / RFU PLEKHG5 (11737974_s_at) / Fold change /veh PLEKHG5 (11737974_s_at) / RFU LRRC4B (11730491_at) / Fold change /veh LRRC4B (11730491_at) / RFU GIMAP4 (11747438_a_at) / Fold change /veh GIMAP4 (11747438_a_at) / RFU KRT8 (11758183_x_at) / Fold change /veh KRT8 (11758183_x_at) / RFU CNN1 (11734310_a_at) / Fold change /veh CNN1 (11734310_a_at) / RFU VPS37D (11726825_at) / Fold change /veh VPS37D (11726825_at) / RFU C10orf10 (11716522_x_at) / Fold change /veh C10orf10 (11716522_x_at) / RFU KIR2DL2 /// KIR2DL4 /// KIR2DL5A /// KIR2DL5B /// KIR2DS1 /// KIR2DS2 /// KIR2DS3 /// KIR2DS4 /// KIR3DL3 /// KIR3DL3 /// KIR3DS1 (11738374_at) / Fold change /veh KIR2DL2 /// KIR2DL4 /// KIR2DL5A /// KIR2DL5B /// KIR2DS1 /// KIR2DS2 /// KIR2DS3 /// KIR2DS4 /// KIR3DL3 /// KIR3DL3 /// KIR3DS1 (11738374_at) / RFU C1QL1 (11718748_at) / Fold change /veh C1QL1 (11718748_at) / RFU TMPRSS4 (11747572_a_at) / Fold change /veh TMPRSS4 (11747572_a_at) / RFU HAMP (11756126_x_at) / Fold change /veh HAMP (11756126_x_at) / RFU RNFT2 (11725882_a_at) / Fold change /veh RNFT2 (11725882_a_at) / RFU NR4A2 (11747474_a_at) / Fold change /veh NR4A2 (11747474_a_at) / RFU ABCC12 (11746883_a_at) / Fold change /veh ABCC12 (11746883_a_at) / RFU TMEM136 (11760407_x_at) / Fold change /veh TMEM136 (11760407_x_at) / RFU CLDN22 /// WWC2 (11732394_at) / Fold change /veh CLDN22 /// WWC2 (11732394_at) / RFU HLA-DPB1 (11760878_x_at) / Fold change /veh HLA-DPB1 (11760878_x_at) / RFU SPINT1 (11716480_a_at) / Fold change /veh SPINT1 (11716480_a_at) / RFU GAP43 (11754022_s_at) / Fold change /veh GAP43 (11754022_s_at) / RFU A4GNT (11735810_at) / Fold change /veh A4GNT (11735810_at) / RFU PRB3 (11715151_x_at) / Fold change /veh PRB3 (11715151_x_at) / RFU TUBB4B (11761932_at) / Fold change /veh TUBB4B (11761932_at) / RFU CAPN14 (11732068_a_at) / Fold change /veh CAPN14 (11732068_a_at) / RFU TMCC2 (11721928_a_at) / Fold change /veh TMCC2 (11721928_a_at) / RFU IRGQ (11745062_a_at) / Fold change /veh IRGQ (11745062_a_at) / RFU FAM174B (11720279_a_at) / Fold change /veh FAM174B (11720279_a_at) / RFU TMPRSS4 (11748680_a_at) / Fold change /veh TMPRSS4 (11748680_a_at) / RFU FAM212B (11763350_a_at) / Fold change /veh FAM212B (11763350_a_at) / RFU PLEKHG5 (11743358_a_at) / Fold change /veh PLEKHG5 (11743358_a_at) / RFU ZSCAN30 (11745921_a_at) / Fold change /veh ZSCAN30 (11745921_a_at) / RFU CMKLR1 (11741424_a_at) / Fold change /veh CMKLR1 (11741424_a_at) / RFU LOC101060620 /// MAPK8IP1 (11723275_at) / Fold change /veh LOC101060620 /// MAPK8IP1 (11723275_at) / RFU SPTSSB (11747773_x_at) / Fold change /veh SPTSSB (11747773_x_at) / RFU PRSS12 (11739890_at) / Fold change /veh PRSS12 (11739890_at) / RFU BIN1 (11741810_x_at) / Fold change /veh BIN1 (11741810_x_at) / RFU WNT11 (11732464_a_at) / Fold change /veh WNT11 (11732464_a_at) / RFU C10orf10 (11716521_a_at) / Fold change /veh C10orf10 (11716521_a_at) / RFU C5orf56 (11738089_at) / Fold change /veh C5orf56 (11738089_at) / RFU CYB561 (11721691_x_at) / Fold change /veh CYB561 (11721691_x_at) / RFU ANKRD19P (11752326_a_at) / Fold change /veh ANKRD19P (11752326_a_at) / RFU OR2T12 /// OR2T33 /// OR2T8 (11738714_s_at) / Fold change /veh OR2T12 /// OR2T33 /// OR2T8 (11738714_s_at) / RFU VCAN (11748164_a_at) / Fold change /veh VCAN (11748164_a_at) / RFU JSRP1 (11732532_at) / Fold change /veh JSRP1 (11732532_at) / RFU KRTAP10-11 (11738290_x_at) / Fold change /veh KRTAP10-11 (11738290_x_at) / RFU MYO3A (11730013_a_at) / Fold change /veh MYO3A (11730013_a_at) / RFU EBF3 (11725865_a_at) / Fold change /veh EBF3 (11725865_a_at) / RFU CAMK2N1 (11719241_x_at) / Fold change /veh CAMK2N1 (11719241_x_at) / RFU C5orf56 (11738088_a_at) / Fold change /veh C5orf56 (11738088_a_at) / RFU OLFML3 (11715873_a_at) / Fold change /veh OLFML3 (11715873_a_at) / RFU LOC100653217 /// NTM (11731650_a_at) / Fold change /veh LOC100653217 /// NTM (11731650_a_at) / RFU MAPK11 (11762145_a_at) / Fold change /veh MAPK11 (11762145_a_at) / RFU FIZ1 (11724087_x_at) / Fold change /veh FIZ1 (11724087_x_at) / RFU OASL (11726364_x_at) / Fold change /veh OASL (11726364_x_at) / RFU SOX15 (11748057_x_at) / Fold change /veh SOX15 (11748057_x_at) / RFU CD79A (11719716_a_at) / Fold change /veh CD79A (11719716_a_at) / RFU HIST1H1D (11736915_at) / Fold change /veh HIST1H1D (11736915_at) / RFU CASKIN2 (11723855_a_at) / Fold change /veh CASKIN2 (11723855_a_at) / RFU LOC730098 (11760151_x_at) / Fold change /veh LOC730098 (11760151_x_at) / RFU OR4N2 (11742367_at) / Fold change /veh OR4N2 (11742367_at) / RFU PRRT2 (11749266_a_at) / Fold change /veh PRRT2 (11749266_a_at) / RFU SNX32 (11753110_a_at) / Fold change /veh SNX32 (11753110_a_at) / RFU CDHR5 (11726645_a_at) / Fold change /veh CDHR5 (11726645_a_at) / RFU RCAN1 (11760418_a_at) / Fold change /veh RCAN1 (11760418_a_at) / RFU FAM167A (11723789_a_at) / Fold change /veh FAM167A (11723789_a_at) / RFU FAM26E (11764081_at) / Fold change /veh FAM26E (11764081_at) / RFU ISYNA1 (11749810_s_at) / Fold change /veh ISYNA1 (11749810_s_at) / RFU ACY1 (11761880_at) / Fold change /veh ACY1 (11761880_at) / RFU 11764098_at / Fold change /veh 11764098_at / RFU SAMD14 (11745864_x_at) / Fold change /veh SAMD14 (11745864_x_at) / RFU NPB (11741838_a_at) / Fold change /veh NPB (11741838_a_at) / RFU TMPRSS6 (11731388_a_at) / Fold change /veh TMPRSS6 (11731388_a_at) / RFU KRTAP10-2 (11738614_at) / Fold change /veh KRTAP10-2 (11738614_at) / RFU ARHGAP8 /// PRR5-ARHGAP8 (11727945_x_at) / Fold change /veh ARHGAP8 /// PRR5-ARHGAP8 (11727945_x_at) / RFU KRTAP5-7 /// NADSYN1 (11734609_at) / Fold change /veh KRTAP5-7 /// NADSYN1 (11734609_at) / RFU RASL12 (11751679_a_at) / Fold change /veh RASL12 (11751679_a_at) / RFU CDKN2B (11736163_a_at) / Fold change /veh CDKN2B (11736163_a_at) / RFU PRF1 (11729649_at) / Fold change /veh PRF1 (11729649_at) / RFU, ZNF638 /// ZNF638-IT1 / Fold change vs veh, ZNF638 /// ZNF638-IT1 / RFU, PANK3 / Fold change vs veh, PANK3 / RFU, SH3YL1 / Fold change vs veh, SH3YL1 / RFU, ZEB2 / Fold change vs veh, ZEB2 / RFU, NRIP1 / Fold change vs veh, NRIP1 / RFU, PTTG1IP / Fold change vs veh, PTTG1IP / RFU, CAPN2 / Fold change vs veh, CAPN2 / RFU, MED14 / Fold change vs veh, MED14 / RFU, SNORA58 / Fold change vs veh, SNORA58 / RFU, C1orf63 / Fold change vs veh, C1orf63 / RFU, LRRFIP1 / Fold change vs veh, LRRFIP1 / RFU, NDUFAF7 / Fold change vs veh, NDUFAF7 / RFU, SLC12A2 / Fold change vs veh, SLC12A2 / RFU, IBTK / Fold change vs veh, IBTK / RFU, ESF1 / Fold change vs veh, ESF1 / Fold change vs veh, TMEM50B / RFU, TAOK1 / Fold change vs veh, TAOK1 / RFU, ACBD3 / Fold change vs veh, ACBD3 / RFU, TMA16 / Fold change vs veh, TMA16 / RFU, RWDD3 / Fold change vs veh, RWDD3 / RFU, BCAT1 / Fold change vs veh, BCAT1 / RFU, EDEM3 / Fold change vs veh, EDEM3 / RFU, TMEM33 / Fold change vs veh, TMEM33 / RFU, WDR75 / Fold change vs veh, WDR75 / RFU, AHCTF1 / Fold change vs veh, AHCTF1 / RFU, TFRC / Fold change vs veh, TFRC / RFU, ZDHHC17 / Fold change vs veh, ZDHHC17 / RFU, NOM1 / Fold change vs veh, NOM1 / RFU, ARL8B / Fold change vs veh, ARL8B / RFU, ZBTB11 / Fold change vs veh, ZBTB11 / RFU, TAMM41 / Fold change vs veh, TAMM41 / RFU, KIAA1704 /// LOC100996395 / Fold change vs veh, KIAA1704 /// LOC100996395 / RFU, ING1 / Fold change vs veh, ING1 / RFU, TRMT61B / Fold change vs veh, TRMT61B / RFU, FUBP3 / Fold change vs veh, FUBP3 / RFU, TP53 / Fold change vs veh, TP53 / RFU, TNKS2 / Fold change vs veh, TNKS2 / RFU, ZFP14 / Fold change vs veh, ZFP14 / RFU, ACTR2 / Fold change vs veh, ACTR2 / RFU, PPP3R1 / Fold change vs veh, PPP3R1 / RFU, PIK3R1 / Fold change vs veh, PIK3R1 / RFU, HNRNPA1 / Fold change vs veh, HNRNPA1 / RFU, RNF170 / Fold change vs veh, RNF170 / RFU, ZNF28 / Fold change vs veh, ZNF28 / RFU, RNGTT / Fold change vs veh, RNGTT / RFU, OGT / Fold change vs veh, OGT / RFU, BRD1 / Fold change vs veh, BRD1 / RFU, MARS / Fold change vs veh, MARS / RFU, ZNF655 / Fold change vs veh, ZNF655 / RFU, FAHD1 / Fold change vs veh, FAHD1 / RFU, BDP1 / Fold change vs veh, BDP1 / RFU, LRRCC1 / Fold change vs veh, LRRCC1 / RFU, ARID1A / Fold change vs veh, ARID1A / RFU, ZNF146 / Fold change vs veh, ZNF146 / RFU, ZNF330 / Fold change vs veh, ZNF330 / RFU, GPN3 / Fold change vs veh, GPN3 / RFU, C9orf123 / Fold change vs veh, C9orf123 / RFU, N4BP2L2 / Fold change vs veh, N4BP2L2 / RFU, ARFIP1 / Fold change vs veh, ARFIP1 / RFU, FAM179B / Fold change vs veh, FAM179B / RFU, BCL10 / Fold change vs veh, BCL10 / RFU, UHRF1BP1L / Fold change vs veh, UHRF1BP1L / RFU, BET1 / Fold change vs veh, BET1 / RFU, CNOT2 / Fold change vs veh, CNOT2 / RFU, ZNF268 / Fold change vs veh, ZNF268 / Fold change vs veh, ZNF507 / RFU, DGCR2 / Fold change vs veh, DGCR2 / RFU, WDSUB1 / Fold change vs veh, WDSUB1 / Fold change vs veh, HSP90B1 /// MIR3652 / RFU, ADSS / Fold change vs veh, ADSS / RFU, GK / Fold change vs veh, GK / RFU, ZNF148 / Fold change vs veh, ZNF148 / RFU, TAF9 / Fold change vs veh, TAF9 / RFU, SLC1A5 / Fold change vs veh, SLC1A5 / RFU, SLMO2 / Fold change vs veh, SLMO2 / RFU, ABCC4 / Fold change vs veh, ABCC4 / RFU, LOC101060439 /// RAP1B / Fold change vs veh, LOC101060439 /// RAP1B / RFU, RFX7 / Fold change vs veh, RFX7 / RFU, GTPBP10 / Fold change vs veh, GTPBP10 / RFU, CNEP1R1 / Fold change vs veh, CNEP1R1 / RFU, BIVM-ERCC5 /// ERCC5 / Fold change vs veh, BIVM-ERCC5 /// ERCC5 / RFU, ILF3 / Fold change vs veh, ILF3 / RFU 11762660_at / Fold change /veh 11762660_at / RFU VCAN (11757783_s_at) / Fold change /veh VCAN (11757783_s_at) / RFU DDX43 (11728927_at) / Fold change /veh DDX43 (11728927_at) / RFU KRT8 (11758188_x_at) / Fold change /veh KRT8 (11758188_x_at) / RFU NKD1 (11759106_at) / Fold change /veh NKD1 (11759106_at) / RFU SRD5A1 (11742802_a_at) / Fold change /veh SRD5A1 (11742802_a_at) / RFU TPSAB1 /// TPSB2 (11721975_s_at) / Fold change /veh TPSAB1 /// TPSB2 (11721975_s_at) / RFU GSTM3 (11746129_a_at) / Fold change /veh GSTM3 (11746129_a_at) / RFU IL23R (11737362_x_at) / Fold change /veh IL23R (11737362_x_at) / RFU TMEM51 (11727254_a_at) / Fold change /veh TMEM51 (11727254_a_at) / RFU PIWIL2 (11732686_x_at) / Fold change /veh PIWIL2 (11732686_x_at) / RFU ORM1 (11744905_x_at) / Fold change /veh ORM1 (11744905_x_at) / RFU CCDC152 (11743942_at) / Fold change /veh CCDC152 (11743942_at) / RFU ECM1 (11717891_a_at) / Fold change /veh ECM1 (11717891_a_at) / RFU IL23R (11748794_a_at) / Fold change /veh IL23R (11748794_a_at) / RFU TNFAIP8L3 (11732012_x_at) / Fold change /veh TNFAIP8L3 (11732012_x_at) / RFU MBOAT4 (11741988_at) / Fold change /veh MBOAT4 (11741988_at) / RFU 11764193_at / Fold change /veh 11764193_at / RFU TMEM53 (11763286_at) / Fold change /veh TMEM53 (11763286_at) / RFU MAGEB2 (11727129_at) / Fold change /veh MAGEB2 (11727129_at) / RFU TMEM200A (11744735_a_at) / Fold change /veh TMEM200A (11744735_a_at) / RFU CCDC152 (11751479_a_at) / Fold change /veh CCDC152 (11751479_a_at) / RFU FAM211A (11726209_a_at) / Fold change /veh FAM211A (11726209_a_at) / RFU RGS16 (11746705_a_at) / Fold change /veh RGS16 (11746705_a_at) / RFU VCAN (11755009_s_at) / Fold change /veh VCAN (11755009_s_at) / RFU RHOB (11743442_s_at) / Fold change /veh RHOB (11743442_s_at) / RFU RGS16 (11720943_a_at) / Fold change /veh RGS16 (11720943_a_at) / RFU RGS16 (11720944_at) / Fold change /veh RGS16 (11720944_at) / RFU, VPS4B / Fold change vs veh, VPS4B / RFU, CREB1 / Fold change vs veh, CREB1 / RFU, DNAJC13 / Fold change vs veh, DNAJC13 / RFU, GNAQ / Fold change vs veh, GNAQ / RFU, CDK5R1 / Fold change vs veh, CDK5R1 / RFU, ZRANB3 / Fold change vs veh, ZRANB3 / RFU, CUL4A / Fold change vs veh, CUL4A / RFU, CCNY / Fold change vs veh, CCNY / RFU, UFL1 / Fold change vs veh, UFL1 / RFU, COG3 / Fold change vs veh, COG3 / RFU, DIAPH2 / Fold change vs veh, DIAPH2 / RFU, SKA2 / Fold change vs veh, SKA2 / RFU, AFF3 / Fold change vs veh, AFF3 / RFU, LMF1 / Fold change vs veh, LMF1 / RFU, IPO11 / Fold change vs veh, IPO11 / RFU, DFFB / Fold change vs veh, DFFB / RFU, FOXP1 / Fold change vs veh, FOXP1 / RFU, CARD8 / Fold change vs veh, CARD8 / RFU, STRN3 / Fold change vs veh, STRN3 / RFU, ADK / Fold change vs veh, ADK / RFU, RASSF2 / Fold change vs veh, RASSF2 / RFU, WIPF1 / Fold change vs veh, WIPF1 / RFU, LARP1B / Fold change vs veh, LARP1B / RFU, RASA1 / Fold change vs veh, RASA1 / RFU, RB1 / Fold change vs veh, RB1 / RFU, PPFIA1 / Fold change vs veh, PPFIA1 / RFU, MAT2A / Fold change vs veh, MAT2A / RFU, CCT5 / Fold change vs veh, CCT5 / RFU, WDR92 / Fold change vs veh, WDR92 / RFU, CUX1 / Fold change vs veh, CUX1 / RFU, TTC7A / Fold change vs veh, TTC7A / RFU, TMEM135 / Fold change vs veh, TMEM135 / RFU, DEPTOR / Fold change vs veh, DEPTOR / RFU, CPM / Fold change vs veh, CPM / RFU, DNAJB6 / Fold change vs veh, DNAJB6 / RFU, CACNA2D3 / Fold change vs veh, CACNA2D3 / RFU, DTX4 / Fold change vs veh, DTX4 / RFU, TFCP2 / Fold change vs veh, TFCP2 / RFU, GMCL1 /// GMCL1P1 / Fold change vs veh, GMCL1 /// GMCL1P1 / RFU, AEBP2 / Fold change vs veh, AEBP2 / RFU, SNHG1 /// SNORD22 /// SNORD25 /// SNORD26 /// SNORD27 /// SNORD28 /// SNORD29 /// SNORD31 / Fold change vs veh, SNHG1 /// SNORD22 /// SNORD25 /// SNORD26 /// SNORD27 /// SNORD28 /// SNORD29 /// SNORD31 / Fold change (Aza/veh), C12orf56 (ProbeSet 11735607_a_at) / Fold change (ACY-1035/veh), C12orf56 (ProbeSet 11735607_a_at) / Fold change (Aza/veh), FGFR1OP (ProbeSet 11751329_s_at) / Fold change (ACY-1035/veh), FGFR1OP (ProbeSet 11751329_s_at) / Fold change (Aza/veh), VPS36 (ProbeSet 11739960_a_at) / Fold change (ACY-1035/veh), VPS36 (ProbeSet 11739960_a_at) / RFU SYPL1 (11715823_x_at) / Fold change /veh SYPL1 (11715823_x_at) / RFU IGFBP7 (11715501_s_at) / Fold change /veh IGFBP7 (11715501_s_at) / RFU REEP3 (11722064_at) / Fold change /veh REEP3 (11722064_at) / RFU IGLL1 (11728026_x_at) / Fold change /veh IGLL1 (11728026_x_at): dose or concentration left out as unconfirmed
Settings: MV-4-11 cells, 48 hours

## Nc1ccc(-c2cccs2)cc1NC(=O)c1ccc2c(c1)cc(C1CC1)n2CCN1CCOCC1 [ACY-1035]
  Fold change /veh RNFT2 (11725882_a_at): 1.00

Source: paper PMC5218480 (PLoS ONE, 2017)
